Test results reported in patent publication US7951772B2, “Tumor-activated prodrug compounds and treatment” (La Region Wallonne, priority 1994, dated 2011).
Converted amounts (≈) assume the structure as drawn. “And” between values parts separate entries of the source, which are not always exact repeats. Equal values may be shown once. Read-outs that look alike come from different tables or passages of the source. Each block holds one compound with its values, some of them ahead of it. Square brackets hold non-standard residues; d marks the D form. Peptide text beside a SMILES is read from it. * marks the point of attachment. X1 = COc1cccc2c1C(=O)c1c(O)c3c(c(O)c1C2=O)CC(O)(C(=O)CO)CC3OC1CC(N*)C(O)C(C)O1; pGlu = O=C1CC[CH](C(=O)O)N1

Key:
[1] = test system: conditioned medium from MCF7/6 mammary carcinoma cells
MRC5 fibroblast cells [2] = test: Cytotoxicity with respect to MRC5 normal cells (72 h, Bradford protein); details: for IC50: Homo sapiens
MRC5 fibroblast cells [3] = test: Accumulation in MRC5 normal fibroblast cells (HPLC of cell extracts); details: for Accumulation after 6 h, DOX / Accumulation after 6 h, Leu-DOX: 10 μg eq. DOX/ml
Protocol: At various times, the accumulation of the prodrugs and of their fluorescent metabolites was determined by HPLC after extraction of the products at basic pH according to a method developed in the laboratory. Accumulations, expressed in μg/mg of cellular proteins, were compared with those of DNR and of L-Leu-DNR. The metabolites were identified by determining the retention times of reference products synthesized in the laboratory.
(§7) After various times, the accumulation of the prodrugs and of their fluorescent metabolites was determined by HPLC after extraction of the products at basic pH according to a method developed in the laboratory. Accumulations, expressed in μg/mg of cellular proteins, were compared with those of DOX and of L-Leu-DOX. The metabolites were identified by determining the retention times of reference products synthesized in the laboratory.

[4] = test system: conditioned medium from MCF7/6 mammary carcinoma cells; test: Degradation in conditioned medium from MCF7/6 mammary carcinoma cells (HPLC)
[5] = test system: MCF7/6 human mammary carcinoma cells; test: Cytotoxicity with respect to MCF7/6 tumor cells (72 h, Bradford protein); details: for IC50: Homo sapiens
[6] = test system: MCF7/6 human mammary carcinoma cells; test: Accumulation in MCF7/6 tumor cells (HPLC of cell extracts)
Protocol: After various times, the accumulation of the prodrugs and of their fluorescent metabolites were determined by HPLC after extraction of the products at basic pH according to a method developed in the laboratory. Accumulations, expressed in μg/mg of cellular proteins, were compared with those of DNR and of DOX as well as with those of L-Leu-DNR and L-Leu-DOX. The metabolites were identified by determining the retention times of reference products synthesized in the laboratory.
as §7

[7] = test system: conditioned medium from HepG2 hepatocarcinoma cells; test: Degradation in conditioned medium from HepG2 hepatocarcinoma cells; details: β-Ala-Leu-Ala-Leu-DNR incubated at 37 C for 2 hours in HepG2 conditioned medium
female NMRI mice [8] = test: In vivo acute toxicity, intraperitoneal route, 5 consecutive days; set-up: species or system mouse; details: i.p. on 5 consecutive days
Protocol: (§1) In the in vivo study of the acute toxicity of a medicinal product, determination of the median lethal dose (lethal dose for 50% of the animals or LD50) occupies an important place. […] The LD50 is a simple test in which increasing amounts of the test product are administered intravenously (i.v.) in a single injection and intraperitoneally (i.p.) in 5 injections, one injection daily for 5 consecutive days. The mortality of the animals is monitored as a function of time. At the end of the observation period, usually 30 days, the value of the LD50 is obtained by linear regression of the percentage mortality (on a probit scale) as a function of the logarithm of the dose administered (O. K. Chan and A. W. Hayes, Principles and methods for acute toxicity and eye irritancy, in Principles and methods of toxicology, Second edition. Ed. by A. W. Hayes, Raven Press, New York, USA (1989), pp. 169-220; D. Deprez-De Campeneere and A. Trouet. DNA-Anthracycline Complexes. I. Toxicity in mice and chemotherapeutic activity against L1210 Leukaemia off Daunorubicin-DNA and Adriamycin-DNA, Eur. J. Cancer, 16 (1980), pp. 981-986; H. E. Skipper, L. H. Schmidt, A. Goldin and J. M. Venditti. A manual on quantitative drug evaluation in experimental tumor systems, Cancer Chemother. Rep. 17 (1.962), pp. 1-178).
(§2) The acute toxicity of these two drugs was studied via the i.v. and i.p. routes on a single strain of mouse. Female NMRI mice (nonconsanguineous SPF-Han, approximately 5 weeks old and of mean weight 14.6 grams, supplied by IFFA-CREDO Belgium) remained in quarantine for one week.
(§3) Injections were performed systematically in the morning (single injection into the caudal vein for the i.v. route and injections on 5 consecutive days into the peritoneum for the i.p. route), using 1.0 ml syringes and sterile 30 G (i.v.) and 27 G (i.p) needles. All handling of animals was performed with gloves, and maintenance of the animals was performed systematically every week.
(§4) DNR was injected i.v. at doses of 10, 15, 20, 25, 30 and 35 mg/kg and i.p. at doses of 2.0; 2.5; 3.0 and 3.5 mg/kg.
(§5) The concentrations of the solutions were verified by spectrophotometry.
(§6) From the day of injection (DO) onwards, the mice were monitored clinically, with a daily record of dead mice. The weight of the mice was measured almost every day. The observation period was extended beyond one month so that the signs of late toxicity could be spotted more readily. At the end of the study, the surviving mice were sacrificed, according to the standards pertaining to animal experiments (D. B. McGregor. Ethics in experiments on animals, in Experiments in toxicology, First edition. Ed. by D. Anderson and D. M. Conning. The Royal Society of Chemistry and The Universities Press. Belfast, Ireland (1988), pp. 512-522).

female NMRI mice [9] = test: In vivo acute toxicity, intravenous route; set-up: species or system mouse
Protocol: as §1, §2, §3, §4, §5, §6

[10] = β-Ala-Leu-Ala-Leu-DOX incubated at 37 C in MCF7/6 conditioned medium concentrated 20 times, share of each species

Hydrolysis, MCF-7/6 Conditioned Medium [1]: +
Compound: COc1cccc2c1C(=O)c1c(O)c3c(c(O)c1C2=O)CC(O)(C(C)=O)CC3OC1CC(NC(=O)C(CC(C)C)NC(=O)CNC(=O)C(CC(C)C)NC(=O)CN)C(O)C(C)O1 [Gly-L-Leu-Gly-L-Leu-DNR]

Hydrolysis, MCF-7/6 Conditioned Medium [1]: +
Compound: COc1cccc2c1C(=O)c1c(O)c3c(c(O)c1C2=O)CC(O)(C(C)=O)CC3OC1CC(NC(=O)C(CC(C)C)NC(=O)C(C)NC(=O)C(CC(C)C)NC(=O)C(C)NC(=O)C(N)CC(C)C)C(O)C(C)O1 [D-Leu-L-Ala-L-Leu-L-Ala-L-Leu-DNR]

Hydrolysis, MCF-7/6 Conditioned Medium [1]: +
Compound: β-Ala-L-Leu-L-Ala-L-Leu-COU

Hydrolysis, MCF-7/6 Conditioned Medium [1]: −
Compound: COc1cccc2c1C(=O)c1c(O)c3c(c(O)c1C2=O)CC(O)(C(=O)CO)CC3OC1CC(NC(=O)C(CC(C)C)NC(=O)C(C)NC(=O)C(CC(C)C)NC(=O)C(C)NC(=O)C2CCC(=O)N2)C(O)C(C)O1 [pGlu-L-Ala-L-Leu-L-Ala-L-Leu-DOX] ([pGlu]ALAL-X1; configuration not given here)

Hydrolysis, MCF-7/6 Conditioned Medium [1]: −
Compound: COc1cccc2c1C(=O)c1c(O)c3c(c(O)c1C2=O)CC(O)(C(C)=O)CC3OC1CC(NC(=O)C(CC(C)C)NC(=O)C(C)NC(=O)C(CC(C)C)NC(=O)C(C)NC(=O)CCC(=O)O)C(O)C(C)O1 [Succ-L-Ala-L-Leu-L-Ala-L-Leu-DNR]

Accumulation after 6 h, DOX (MRC5 fibroblast cells [3]; MRC5 cells): 0.3 μg/mg cellular prot.
Accumulation after 6 h, Leu-DOX (MRC5 fibroblast cells [3]; MRC5 cells): 1.4 μg/mg cellular prot.
Accumulation after 6 h, DOX (MRC5 fibroblast cells [3]; MRC5 cells, listed as Leu-DOX): 0.30 μg/mg cellular prot.
Accumulation after 6 h, Leu-DOX (MRC5 fibroblast cells [3]; MRC5 cells, listed as Leu-DOX): 1.40 μg/mg cellular prot.
Starting material or Metabolite, After 2 hours [4, 10]: 68%
Starting material or Metabolite, Time 0 [4, 10]: 0%
Accumulation after 6 h, DOX ([6]; MCF7/6 cells, 10 μg eq. DOX/ml): 0.25 μg/mg cellular prot.
Accumulation after 6 h, Leu-DOX ([6]; MCF7/6 cells, 10 μg eq. DOX/ml): 1.10 μg/mg cellular prot.
accumulation, times less than DOX ([6]; MCF7/6 cells, after 6 hours): 6 times
Compound: COc1cccc2c1C(=O)c1c(O)c3c(c(O)c1C2=O)C[C@@](O)(C(=O)CO)C[C@@H]3O[C@H]1C[C@H](NC(=O)[C@@H](N)CC(C)C)[C@H](O)[C@H](C)O1 [L-Leu-DOX, N-L-leucyldoxorubicin]
IC50 (72 h) (MRC5 fibroblast cells [2]; MRC5 cells): 0.30 µg/mL (≈ 0.457 µM)
times less cytotoxic than DOX (MRC5 fibroblast cells [2]; MRC5 cells, 72 hours): 17 times
IC50 (72 h) ([5]; MCF7/6 cells): 0.020 µg/mL (≈ 0.0305 µM)
times less cytotoxic than DOX ([5]; MCF7/6 cells, 72 hours): 8 times

Starting material or Metabolite, After 2 hours [4, 10]: <1%
Starting material or Metabolite, Time 0 [4, 10]: 0%
Compound: COc1cccc2c1C(=O)c1c(O)c3c(c(O)c1C2=O)C[C@@](O)(C(=O)CO)C[C@@H]3O[C@H]1C[C@H](NC(=O)[C@H](CC(C)C)NC(=O)[C@H](C)NC(=O)[C@@H](N)CC(C)C)[C@H](O)[C@H](C)O1 [L-Leu-L-Ala-L-Leu-DOX]

main metabolites found, % of the total fluorescence [7]: 8%
Starting material or Metabolite, Time 0 ([4]; β-Ala-Leu-Ala-Leu-DNR incubated at 37 C in MCF7/6 conditioned medium concentrated 20 of 40 times, share of each species by HPLC): 0%
Starting material or Metabolite, After 1 hour ([4]; β-Ala-Leu-Ala-Leu-DNR incubated at 37 C in MCF7/6 conditioned medium, share of each species by HPLC, 1 hour): <1%
Starting material or Metabolite, After 2 hours ([4]; β-Ala-Leu-Ala-Leu-DNR incubated at 37 C in MCF7/6 conditioned medium, share of each species by HPLC): <1%
Compound: COc1cccc2c1C(=O)c1c(O)c3c(c(O)c1C2=O)C[C@@](O)(C(C)=O)C[C@@H]3O[C@H]1C[C@H](NC(=O)[C@H](CC(C)C)NC(=O)[C@H](C)N)[C@H](O)[C@H](C)O1 [L-Ala-L-Leu-DNR]

Compound: COc1cccc2c1C(=O)c1c(O)c3c(c(O)c1C2=O)C[C@@](O)(C(C)=O)C[C@@H]3O[C@H]1C[C@H](N)[C@H](O)[C@H](C)O1 [DNR, daunorubicin]
IC50 (MRC5 fibroblast cells [2]; MRC5): 0.01 ± 0.006 µg/mL (≈ 0.019 µM)
accumulation plateau (MRC5 fibroblast cells [3]; MRC5 cells, 10 μg/ml, after 6 hours): ~76 μg/mg of cellular proteins
Intracellular concentration, Starting material (MRC5 fibroblast cells [3]; MRC5 cells, 6 hours of incubation, 10 μg eq. DNR/ml): 77.4 μg/mg cellular proteins
day on which no mouse is surviving (female NMRI mice [8]; 2.0 mg/kg): 29 days
mice dead out of 7 at first mortality (female NMRI mice [8]; 2.0 mg/kg, day 11): 1
mice surviving on day 43 (female NMRI mice [8]; 2.5 mg/kg): one
mice dead out of 7 at first mortality (female NMRI mice [8]; 2.5 mg/kg, day 11): 2
day on which no mouse is surviving (female NMRI mice [8]; 3.0 mg/kg): 19 days
mice dead out of 7 at first mortality (female NMRI mice [8]; 3.0 mg/kg, day 9): 2
day on which no mouse is surviving (female NMRI mice [8]; 3.5 mg/kg): 12 days
mice dead out of 7 at first mortality (female NMRI mice [8]; 3.5 mg/kg, day 7): 1
mortality from day (female NMRI mice [8]; dose of 2.0 mg/kg): 11 days
mortality from day (female NMRI mice [8]; dose of 2.5 mg/kg): 11 days
mortality from day (female NMRI mice [8]; dose of 3.0 mg/kg): 9 days
mortality from day (female NMRI mice [8]; dose of 3.5 mg/kg): 7 days
weight loss, % of the initial weight (female NMRI mice [8]; irrespective of the dose (2.0-3.5 mg/kg)): 30%
IC50 ([5]; MCF7/6): 0.09 ± 0.004 µg/mL (≈ 0.171 µM)
mice dying (female NMRI mice [9]; single i.v., 25 mg/kg, groups of 7, days 12 to 42): 6
mortality begins on day (female NMRI mice [9]; single i.v., 30 mg/kg): 7 days
mice dead out of 7 at first mortality (female NMRI mice [9]; single i.v., 30 mg/kg, day 7): 1
mortality begins on day (female NMRI mice [9]; single i.v., 35 mg/kg): 6 days
mice dead out of 7 at first mortality (female NMRI mice [9]; single i.v., 35 mg/kg, day 6): 2
mortality (female NMRI mice [9]; single i.v., 10, 15 and 20 mg/kg): no mortality
day of maximal mean weight loss (female NMRI mice [9]; single i.v., 10-35 mg/kg): 7 days
weight recovery of surviving mice (female NMRI mice [9]; single i.v., 30 and 35 mg/kg, 30 days after injection): do not recover their initial weight
maximum accumulation ([6]; MCF7/6 cells, 10 μg/ml, after 6 hours of incubation): ~15 μg/mg of cellular proteins
Intracellular concentration, Starting material ([6]; MCF7/6 cells, 6 hours of incubation, 10 μg eq. DNR/ml): 14.9 μg/mg cellular proteins
ratio of the intracellular DNR levels (MCF7/6 to MRC5) ([6]; cells incubated in the presence of the compound): 0.19

Starting material or Metabolite, After 2 hours [4, 10]: <1%
Starting material or Metabolite, Time 0 [4, 10]: 0%
Compound: COc1cccc2c1C(=O)c1c(O)c3c(c(O)c1C2=O)CC(O)(C(=O)CO)CC3OC1CC(NC(=O)C(CC(C)C)NC(=O)C(C)N)C(O)C(C)O1 [L-Ala-L-Leu-DOX]

Accumulation after 6 h, DOX (MRC5 fibroblast cells [3]; MRC5 cells): 11.20 μg/mg cellular prot.
intracellular levels of the active therapeutic agent in normal cells compared with tumor cells (MRC5 fibroblast cells [3]; MRC5 versus MCF7/6, 6 h incubation): twice as high
Compound: COc1cccc2c1C(=O)c1c(O)c3c(c(O)c1C2=O)C[C@@](O)(C(=O)CO)C[C@@H]3O[C@H]1C[C@H](N)[C@H](O)[C@H](C)O1 [DOX, doxorubicin]
IC50 (MRC5 fibroblast cells [2]; MRC5, 72 h, read-out: IC50 (72 h)): 0.018 µg/mL (≈ 0.0331 µM)
IC50 ([5]; MCF7/6, 72 h, read-out: IC50 (72 h)): 0.0025 µg/mL (≈ 0.0046 µM)
Accumulation after 6 h, DOX ([6]; MCF7/6 cells, 10 μg eq. DOX/ml): 6.9 μg/mg cellular prot. and 6.90 μg/mg cellular prot.

Hydrolysis, MCF-7/6 Conditioned Medium [1]: +
Compound: COc1cccc2c1C(=O)c1c(O)c3c(c(O)c1C2=O)CC(O)(C(C)=O)CC3OC1CC(NC(=O)C(CC(C)C)NC(=O)C(C)NC(=O)C(CC(C)C)NC(=O)C(C)N)C(O)C(C)O1 [L-Ala-L-Leu-L-Ala-L-Leu-DNR]
